Assay results as given in patent US7087790B2, “Benzotropolone derivatives and modulation of inflammatory response” (Rutgers, The State University of New Jersey, priority 2003, dated 2006).
Values joined by “and” are separate entries in the source; they are usually repeats but may differ in a detail not shown here. Identical values can stand only once.

How the values were obtained:
[1] = tested on: TPA-induced Edema of Mouse Ear; experiment: TPA-induced ear edema assay (skin inflammation model); assay type: in vivo, female CD-I mice; conditions: 0.5 μmol topical in acetone 20 min before TPA (1 nmol); for Average weight of ear punches (mg) (Mean ± SE): 6 mm punches 5 h later; for Percent inhibition %: ear punch weight 5 h later
From the text: In yet another aspect of the invention, the present invention is directed to a method of preventing and/or treating inflammation in an animal using compositions having benzotropolone containing compounds disclosed herein. […] The anti-inflammatory activity (or anti-edema) of benzotropolone containing compounds of the present invention can be tested using 12–0-tetradecanoylphorbol- 13-acetate (TPA) TPA-induced inflammatory skin edema assay. Application of TPA on skin results in induction of omithine decarboxylase activity that increases the polyamine level and epidermal hyperplasia, and inflammation, and pro-inflammatory cytokine (e.g., IL-1β) and prostaglandins (prostaglandin E2) production at the site. The benzotropolone containing compounds can be applied either prior to or subsequent to or simultaneously with the topical application of TPA to skin tissue (e.g. mice ear).
The TPA (12-O-tetradecanoylphorbol-13-acetate)-induced ear edema assay was carried out to examine anti-inflammatory activity of benzotropolone-containing compounds in skin inflammation model. The female CD-I mice (24-25 days old) were topically treated with 20 μl of acetone and benzotropolone-containing compounds in 20 μl of acetone at 20 minutes before topical application of 20 μl of acetone or TPA (1 nmol) in 20 μl of acetone. Then, five hours later, all mice were sacrificed by cervical dislocation. The ear punches (6 mm in diameter) were taken and weighed.

[2] = Oxygen radical absorbance capacity (ORAC) assay with fluorescein probe and AAPH; conditions: Trolox equivalents; 0.5 μM; 75 mM phosphate buffer pH 5.5; mean ± SD, n = 4 (a: n = 3)
From the text: In another aspect, the present invention also discloses antioxidant activities of the compositions having benzotropolone containing compounds disclosed herein. Oxygen radical absorbence capacity (ORAC) assay, which is a measure of free radical scavenging ability, is simple and sensitive method to measure the oxygen-radical absorbing capacity. It has been widely used for measuring the antioxidant activity of food and nutraceutical components. ORAC assay was developed by Cao et al., 1993, Free Radical Biol. Med. 14:303–311. In the assay, β-phycoerythrin (β-PE) was used as fluorescent indicator protein and 2,2′-Azobis(2-amidinopropane) dihydrochloride (AAPH) used as a peroxy radical generator. β-PE is a photosynthetic protein found in red algae. β-PE has been used as fluorescent probe because of its distinct excitation and emission wavelength (Ex. 540 nm, Em. 565 nm). The use of β-PE as a fluorescent probe, however, has certain defects. When reactive oxygen species attack the β-PE, it can easily lose the fluorescence. Furthermore, the ORAC value can be affected by possible interaction between polyphenols and proteins. Recently, Ou et al., 2001, J. Agric. Food Chem. 49:4619–4626 reported an improved ORAC method using fluorescein, instead of β-PE, as a fluorescent probe. Accordingly, fluorescein is used as a fluorescent probe in ORAC assays for testing the antioxidant activities of the compounds of the present invention.
Oxygen radical absorbance capacity (ORAC) assay was performed to examine antioxidant activity of individual theaflavins and epitheaflavic acids. All reagents were prepared in 75 mM phosphate buffer (pH 5.5). Reaction mixture consists of 3 mL of Fluorescein solution (8.16×10^−5 mM), 500 μL AAPH (153 mM), and 500 μL of sample solution or blank. Once AAPH was added, fluorescence was measured every 1 min using Hitachi Model F-3010 fluorescence spectrophotometer with emission and excitation wavelength of 515 and 493 nm, respectively. The ORAC value was calculated based on the area under the fluorescence decay curve of fluorescein in the presence of the test compound comparing to the area generated by standard Trolox and blank. The net area under the curve and ORAC values were calculated by the formula presented by Cao et al (Cao et al. 1993).
The relative ORAC value (Trolox equivalents) was calculated with following equation.
The area under curve (AUC) was calculated according to following equation. AUC=1+f1/f0+f2/f0+f3/f0+f4/f0 . . . +f119/f0+f120/f0 f0 is the initial fluorescence reading at 0 min, fi is the fluorescence reading at time i.
Quenching curves representing the peroxyl radical absorbing activity of Trolox in various concentration (0˜4 μM) was used as a standard (data not shown). The net area of quenching curve increased proportionally to an increment of the Trolox concentration. Quenching curves of theaflavins and EGCG were examined (data not shown). […] Quenching curves of epitheaflavic acids and EGCG were also examined. (data not shown).

TPA-induced ear edema = conditions: topical; cited from earlier work

Compound | Average weight of ear punches (mg) (Mean ± SE) [1] | Percent inhibition % [1] | Relative ORAC value [2] | anti-inflammatory activity (rank order, Liang et al.) (TPA-induced ear edema)
O=C(O[C@@H]1Cc2c(O)cc(O)cc2O[C@@H]1c1cc(O)c(O)c(O)c1)c1cc(O)c(O)c(O)c1 [EGCG, (−)-epigallocatechin-3-gallate, reference compound] | 8.79 ± 0.54 mg | 68.3% | 7.69 ± 0.35 | –
O=C(O)c1cc(O)c(=O)c2c(O)c(O)ccc2c1 [GACa] | 8.61 ± 0.54 mg | 83.3% | – | –
O=C(OC1Cc2c(O)cc(O)cc2OC1c1cc(O)c(=O)c2c(O)c(O)cc(C3Oc4cc(O)cc(O)c4CC3O)c2c1)c1cc(O)c(O)c(O)c1 (stereo not drawn) [Neotheaflavin 3-gallate] | 8.42 ± 0.42 mg | 88.4% | – | –
O=c1c(O)cc([C@H]2Oc3cc(O)cc(O)c3C[C@H]2O)cc2c([C@H]3Oc4cc(O)cc(O)c4C[C@@H]3O)cc(O)c(O)c12 [Neotheaflavin] | 10.58 ± 0.73 mg | 62.9% | – | –
O=c1c(O)cccc2cc(O)c(O)c(O)c12 [Purprogallin, Purpurogallin] | – | – | 6.01 ± 0.42 | –
O=C(O)c1cc(O)c(=O)c2c(O)c(O)cc([C@H]3Oc4cc(O)cc(O)c4C[C@@H]3O)c2c1 [Theaflavic acid] | 9.28 ± 0.37 mg and 8.95 ± 0.43 mg | 78.3% and 79.5% | – | –
O=C(O[C@@H]1Cc2c(O)cc(O)cc2O[C@@H]1c1cc(=O)c(O)c2c(O)c(O)cc([C@H]3Oc4cc(O)cc(O)c4C[C@H]3O)c2c1)c1cc(O)c(O)c(O)c1 [Theaflavin 3-gallate] | 7.86 ± 0.24 mg | 91.5% | 13.17 ± 0.18 | –
O=c1c(O)cc([C@H]2Oc3cc(O)cc(O)c3C[C@H]2O)cc2c([C@H]3Oc4cc(O)cc(O)c4C[C@H]3O)cc(O)c(O)c12 [Theaflavin] | 7.90 ± 0.42 mg and 8.23 ± 0.40 mg | 89.2% and 87.8% | 11.60 ± 0.30 | –
Epigallocatechinocatechol gallate [EGCGCa] | 7.49 ± 0.12 mg | 96.3% | – | –
Epitheaflavic acid | 9.39 ± 0.43 mg | 74.4% | 9.74 ± 0.38 | –
Neotheaflavate A | 8.65 ± 0.64 mg | 85.7% | – | –
Theaflavate A | 8.52 ± 0.26 mg | 87.2% | – | –
Theaflavate B | 8.35 ± 0.32 mg | 89.2% | – | –
Theaflavin 3,3′-digallate [Theaflavin 3,3′-gallate] | 7.03 ± 0.18 mg | 100.0% | 13.54 ± 0.69 | stronger than TF-2
Theaflavin 3′-gallate | 7.44 ± 0.18 mg | 100.0% | 12.40 ± 0.58 | –
